Reference: the supplement of paper PMC10307832

What was measured:
Assay in all cases: relative viability (nuclei count vs DMSO), 5 days (fraction); higher = more cells survive
XMD13-2 + Alpelisib = compound: C1CC1C(=O)NC2=NNC3=C2C=CC(=C3)C4=CC(=CC=C4)C(=O)NC5CC5 [XMD13-2] + Cc1nc(NC(=O)N2CCC[C@H]2C(N)=O)sc1-c1ccnc(C(C)(C)C(F)(F)F)c1 [Alpelisib] (partner 2 µM)
Outline: (§1)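 Lung cancer cell lines in 1536-well plates were dosed by pin tool the day after seeding, either with one drug alone or with a fixed anchor-drug dose plus five library-drug doses (not always all listed) in √10 steps. After 5 days, cells were fixed and their nuclei stained in one step (final 0.05% Triton X-100, 1% formaldehyde, 1 ug/ml Hoechst), then counted on 4× images. Relative viability is the nuclei count in treated wells divided by that in vehicle wells. Values are medians of duplicate plates.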

ALW-II-49-7 + Foretinib = compound: Cc1ccc(C(=O)Nc2cccc(C(F)(F)F)c2)cc1Nc1cncc(C(N)=O)c1 [ALW-II-49-7] + COc1cc2c(Oc3ccc(NC(=O)C4(C(=O)Nc5ccc(F)cc5)CC4)cc3F)ccnc2cc1OCCCN1CCOCC1 [Foretinib] (partner 0.25 µM)
Outline: as §1

ALW-II-49-7 + Pictilisib = compound: Cc1ccc(C(=O)Nc2cccc(C(F)(F)F)c2)cc1Nc1cncc(C(N)=O)c1 [ALW-II-49-7] + CS(=O)(=O)N1CCN(Cc2cc3nc(-c4cccc5[nH]ncc45)nc(N4CCOCC4)c3s2)CC1 [Pictilisib] (partner 1 µM)
Outline: as §1

ALW-II-49-7 + Tozasertib = compound: Cc1ccc(C(=O)Nc2cccc(C(F)(F)F)c2)cc1Nc1cncc(C(N)=O)c1 [ALW-II-49-7] + Cc1cc(Nc2cc(N3CCN(C)CC3)nc(Sc3ccc(NC(=O)C4CC4)cc3)n2)n[nH]1 [Tozasertib] (partner 0.1 µM)
Outline: as §1

For UMC-11, the relative viability (XMD13-2 + Alpelisib; first compound 0.05 µM) was 1.22, the relative viability (XMD13-2 + Alpelisib; first compound 0.1581 µM) was 1.07 and the relative viability (XMD13-2 + Alpelisib; first compound 0.5 µM) was 0.944. It also gave a relative viability (XMD13-2 + Alpelisib; first compound 1.581 µM) of 0.924, a relative viability (XMD13-2 + Alpelisib; first compound 5 µM) of 1.13 and a relative viability (ALW-II-49-7 + Foretinib; first compound 0.08 µM) of 1.11. The relative viability (ALW-II-49-7 + Foretinib; first compound 0.253 µM) was 1.06, the relative viability (ALW-II-49-7 + Foretinib; first compound 0.8 µM) was 0.991 and the relative viability (ALW-II-49-7 + Foretinib; first compound 2.53 µM) was 1.07. It also gave a relative viability (ALW-II-49-7 + Foretinib; first compound 8 µM) of 1.03, a relative viability (ALW-II-49-7 + Pictilisib; first compound 0.08 µM) of 0.917 and a relative viability (ALW-II-49-7 + Pictilisib; first compound 0.253 µM) of 0.807. For the same cell line, the relative viability (ALW-II-49-7 + Pictilisib; first compound 2.53 µM) was 1.06, the relative viability (ALW-II-49-7 + Pictilisib; first compound 8 µM) was 0.814 and the relative viability (ALW-II-49-7 + Tozasertib; first compound 0.08 µM) was 0.193. It also gave a relative viability (ALW-II-49-7 + Tozasertib; first compound 0.253 µM) of 0.202, a relative viability (ALW-II-49-7 + Tozasertib; first compound 0.8 µM) of 0.21 and a relative viability (ALW-II-49-7 + Tozasertib; first compound 2.53 µM) of 0.186. It also gave a relative viability (ALW-II-49-7 + Tozasertib; first compound 8 µM) of 0.217.
